Data published in ChEMBL document CHEMBL1133887, “Anti-influenza virus activities of 2-alkoxyimino-n-(2-isoxazolin-3-ylmethyl)acetamides” (Bioorg Med Chem Lett, 2001).
In brackets after ≈: the same amount, converted by molar mass.

Assays:
[1] = Antiviral activity against A/WSN/33 strain of influenza virus (H1N1 subtype) in MDBK cells using cell protection assay; expressed as 10-100 ppm; assay type: functional, cell-based; conditions: Bos taurus
[2] = Evaluated for cytotoxic activity in MDBK cells; assay type: functional; conditions: Bos taurus
[3] = cells; assay type: functional, cell-based; conditions: Bos taurus, MDBK
[4] = Antiviral activity against A/WSN/33 strain of influenza virus (H1N1 subtype) in MDBK cells using cell protection assay; expressed as 1-10 ppm; assay type: functional, cell-based; conditions: Bos taurus
[5] = The compound was evaluated for cytotoxic activity in MDBK cells; expressed as >100 ppm; assay type: functional; conditions: Bos taurus
[6] = Antiviral activity against A/WSN/33 strain of influenza virus (H1N1 subtype) in MDBK cells using cell protection assay; expressed as >10-100 ppm; assay type: functional, cell-based; conditions: Bos taurus
[7] = Antiviral activity against A/WSN/33 strain of influenza virus (H1N1 subtype) in MDBK cells using cell protection assay; expressed as 100 ppm; assay type: functional, cell-based; conditions: Bos taurus
[8] = Antiviral activity against A/WSN/33 strain of influenza virus (H1N1 subtype) in MDBK cells using cell protection assay; assay type: functional, cell-based; conditions: Bos taurus

| SMILES | EC50 [1] [µg/mL] | CC50 [2] [µg/mL] | also measured |
| --- | --- | --- | --- |
| CO/N=C(/C#N)C(=O)NCC1=NOC(C(C)(C)C)C1 (stereo not given) | 100 (≈ 376 µM) | > 100 |  |
| CO/N=C(/C#N)C(=O)NCC1=NOC(C)(C)C1 |  | > 100 | EC50 [3]: > 100 µg/mL |
| CO/N=C(\C#N)C(=O)NC1=NOC(C(C)(C)C)C1 (stereo not given) |  | > 100 | EC50 [3]: > 100 µg/mL |
| CC(C)O/N=C(\C#N)C(=O)NCC1=NOC(C(C)(C)C)C1 (stereo not given) |  | > 100 | EC50 [4]: 10 µg/mL (≈ 34 µM) |
| CO/N=C(\C#N)C(=O)NCC1=NOC(C(C)(C)C)C1 (stereo not given) |  | > 100 | EC50 [4]: 10 µg/mL (≈ 37.6 µM) |
| CO/N=C(\C#N)C(=O)NCC1=NOC(C)C1 (stereo not given) | 100 (≈ 446 µM) |  | CC50 [5]: > 100 µg/mL |
| C=CCO/N=C(\C#N)C(=O)NCC1=NOC(c2ccccc2)(c2ccccc2)C1 |  | 100 (≈ 257 µM) | EC50 [6]: > 100 µg/mL |
| C=CCO/N=C(\C#N)C(=O)NCc1cc(C(C)(C)C)on1 | 100 (≈ 344 µM) | 100 (≈ 344 µM) |  |
| CO/N=C(\C#N)C(=O)NCc1cccnc1 |  | > 100 | EC50 [3]: > 100 µg/mL |
| C=CCO/N=C(/C(=O)NCC1=NOC(C(C)(C)C)C1)c1ccccc1 (stereo not given) |  | > 100 | EC50 [7]: 100 µg/mL (≈ 291 µM) |
| CO/N=C(\C#N)C(=O)NCC1=NOC(C)(C)C1 | 100 (≈ 420 µM) | > 100 |  |
| CO/N=C(\C#N)C(=O)NCc1cccs1 |  | > 100 | EC50 [3]: > 100 µg/mL |
| CO/N=C(\C#N)C(=O)NC(=O)OC(C)(C)C |  | > 100 | EC50 [3]: > 100 µg/mL |
| CC(C)(C)C1CC(CNC(=O)/C(C#N)=N/OCc2cccnc2)=NO1 (stereo not given) |  | > 100 | EC50 [3]: > 100 µg/mL |
| CCO/N=C(\C#N)C(=O)NCC1=NOC(C(C)(C)C)C1 (stereo not given) |  | > 100 | EC50 [4]: 10 µg/mL (≈ 35.7 µM) |
| CC(C)(C)C1CC(CNC(=O)/C(C#N)=N/OCC#N)=NO1 (stereo not given) | 100 (≈ 343 µM) | > 100 |  |
| C=CCO/N=C/C(=O)NCC1=NOC(C(C)(C)C)C1 (stereo not given) |  | > 100 | EC50 [7]: 100 µg/mL (≈ 374 µM) |
| C=CCO/N=C(\C#N)C(=O)NCC1=NOC(c2ccccc2)C1 (stereo not given) | 100 (≈ 320 µM) | 100 (≈ 320 µM) |  |
| C=CCO/N=C(\C)C(=O)NCC1=NOC(C(C)(C)C)C1 (stereo not given) |  | > 100 | EC50 [8]: 6 µg/mL (≈ 21.3 µM) |
| CC(C)(C)C1CC(CNC(=O)/C(C#N)=N/OCc2ccccc2)=NO1 (stereo not given) | 100 (≈ 292 µM) | 100 (≈ 292 µM) |  |
| CO/N=C(\C#N)C(=O)NCC1CC(C(C)(C)C)=NO1 (stereo not given) | 100 (≈ 376 µM) | > 100 |  |
| C=CCO/N=C(\CC)C(=O)NCC1=NOC(C(C)(C)C)C1 (stereo not given) |  | > 100 | EC50 [7]: 100 µg/mL (≈ 339 µM) |
| C=CCO/N=C(\C#N)C(=O)NCC1=NOC(C(C)(C)C)C1 (stereo not given) |  | > 100 | EC50 [8]: 3 µg/mL (≈ 10.3 µM) |
| NC12CC3CC(CC(C3)C1)C2 [AMANTADINE] | 100 (≈ 661 µM) | > 100 |  |
| CCNC(=O)NC(=O)/C(C#N)=N/OC [CYMOXANIL] |  | > 100 | EC50 [3]: > 100 µg/mL |
